System: MV-4-11 cells
Experiment: Gene expression microarray analysis (Affymetrix PrimeView) and GSEA
Type: cell-based, human
Set-up: RFU PODN (11730768_x_at) / Fold change /veh PODN (11730768_x_at) / RFU LINC00158 (11744669_a_at) / Fold change /veh LINC00158 (11744669_a_at) / RFU DUSP10 (11751237_a_at) / Fold change /veh DUSP10 (11751237_a_at) / RFU ID3 (11757404_x_at) / Fold change /veh ID3 (11757404_x_at) / RFU PLEKHG5 (11737974_s_at) / Fold change /veh PLEKHG5 (11737974_s_at) / RFU LRRC4B (11730491_at) / Fold change /veh LRRC4B (11730491_at) / RFU GIMAP4 (11747438_a_at) / Fold change /veh GIMAP4 (11747438_a_at) / RFU KRT8 (11758183_x_at) / Fold change /veh KRT8 (11758183_x_at) / RFU CNN1 (11734310_a_at) / Fold change /veh CNN1 (11734310_a_at) / RFU VPS37D (11726825_at) / Fold change /veh VPS37D (11726825_at) / RFU C10orf10 (11716522_x_at) / Fold change /veh C10orf10 (11716522_x_at) / RFU KIR2DL2 /// KIR2DL4 /// KIR2DL5A /// KIR2DL5B /// KIR2DS1 /// KIR2DS2 /// KIR2DS3 /// KIR2DS4 /// KIR3DL3 /// KIR3DL3 /// KIR3DS1 (11738374_at) / Fold change /veh KIR2DL2 /// KIR2DL4 /// KIR2DL5A /// KIR2DL5B /// KIR2DS1 /// KIR2DS2 /// KIR2DS3 /// KIR2DS4 /// KIR3DL3 /// KIR3DL3 /// KIR3DS1 (11738374_at) / RFU C1QL1 (11718748_at) / Fold change /veh C1QL1 (11718748_at) / RFU TMPRSS4 (11747572_a_at) / Fold change /veh TMPRSS4 (11747572_a_at) / RFU HAMP (11756126_x_at) / Fold change /veh HAMP (11756126_x_at) / RFU RNFT2 (11725882_a_at) / Fold change /veh RNFT2 (11725882_a_at) / RFU NR4A2 (11747474_a_at) / Fold change /veh NR4A2 (11747474_a_at) / RFU ABCC12 (11746883_a_at) / Fold change /veh ABCC12 (11746883_a_at) / RFU TMEM136 (11760407_x_at) / Fold change /veh TMEM136 (11760407_x_at) / RFU CLDN22 /// WWC2 (11732394_at) / Fold change /veh CLDN22 /// WWC2 (11732394_at) / RFU HLA-DPB1 (11760878_x_at) / Fold change /veh HLA-DPB1 (11760878_x_at) / RFU SPINT1 (11716480_a_at) / Fold change /veh SPINT1 (11716480_a_at) / RFU GAP43 (11754022_s_at) / Fold change /veh GAP43 (11754022_s_at) / RFU A4GNT (11735810_at) / Fold change /veh A4GNT (11735810_at) / RFU PRB3 (11715151_x_at) / Fold change /veh PRB3 (11715151_x_at) / RFU TUBB4B (11761932_at) / Fold change /veh TUBB4B (11761932_at) / RFU CAPN14 (11732068_a_at) / Fold change /veh CAPN14 (11732068_a_at) / RFU TMCC2 (11721928_a_at) / Fold change /veh TMCC2 (11721928_a_at) / RFU IRGQ (11745062_a_at) / Fold change /veh IRGQ (11745062_a_at) / RFU FAM174B (11720279_a_at) / Fold change /veh FAM174B (11720279_a_at) / RFU TMPRSS4 (11748680_a_at) / Fold change /veh TMPRSS4 (11748680_a_at) / RFU FAM212B (11763350_a_at) / Fold change /veh FAM212B (11763350_a_at) / RFU PLEKHG5 (11743358_a_at) / Fold change /veh PLEKHG5 (11743358_a_at) / RFU ZSCAN30 (11745921_a_at) / Fold change /veh ZSCAN30 (11745921_a_at) / RFU CMKLR1 (11741424_a_at) / Fold change /veh CMKLR1 (11741424_a_at) / RFU LOC101060620 /// MAPK8IP1 (11723275_at) / Fold change /veh LOC101060620 /// MAPK8IP1 (11723275_at) / RFU SPTSSB (11747773_x_at) / Fold change /veh SPTSSB (11747773_x_at) / RFU PRSS12 (11739890_at) / Fold change /veh PRSS12 (11739890_at) / RFU BIN1 (11741810_x_at) / Fold change /veh BIN1 (11741810_x_at) / RFU WNT11 (11732464_a_at) / Fold change /veh WNT11 (11732464_a_at) / RFU C10orf10 (11716521_a_at) / Fold change /veh C10orf10 (11716521_a_at) / RFU C5orf56 (11738089_at) / Fold change /veh C5orf56 (11738089_at) / RFU CYB561 (11721691_x_at) / Fold change /veh CYB561 (11721691_x_at) / RFU ANKRD19P (11752326_a_at) / Fold change /veh ANKRD19P (11752326_a_at) / RFU OR2T12 /// OR2T33 /// OR2T8 (11738714_s_at) / Fold change /veh OR2T12 /// OR2T33 /// OR2T8 (11738714_s_at) / RFU VCAN (11748164_a_at) / Fold change /veh VCAN (11748164_a_at) / RFU JSRP1 (11732532_at) / Fold change /veh JSRP1 (11732532_at) / RFU KRTAP10-11 (11738290_x_at) / Fold change /veh KRTAP10-11 (11738290_x_at) / RFU MYO3A (11730013_a_at) / Fold change /veh MYO3A (11730013_a_at) / RFU EBF3 (11725865_a_at) / Fold change /veh EBF3 (11725865_a_at) / RFU CAMK2N1 (11719241_x_at) / Fold change /veh CAMK2N1 (11719241_x_at) / RFU C5orf56 (11738088_a_at) / Fold change /veh C5orf56 (11738088_a_at) / RFU OLFML3 (11715873_a_at) / Fold change /veh OLFML3 (11715873_a_at) / RFU LOC100653217 /// NTM (11731650_a_at) / Fold change /veh LOC100653217 /// NTM (11731650_a_at) / RFU MAPK11 (11762145_a_at) / Fold change /veh MAPK11 (11762145_a_at) / RFU FIZ1 (11724087_x_at) / Fold change /veh FIZ1 (11724087_x_at) / RFU OASL (11726364_x_at) / Fold change /veh OASL (11726364_x_at) / RFU SOX15 (11748057_x_at) / Fold change /veh SOX15 (11748057_x_at) / RFU CD79A (11719716_a_at) / Fold change /veh CD79A (11719716_a_at) / RFU HIST1H1D (11736915_at) / Fold change /veh HIST1H1D (11736915_at) / RFU CASKIN2 (11723855_a_at) / Fold change /veh CASKIN2 (11723855_a_at) / RFU LOC730098 (11760151_x_at) / Fold change /veh LOC730098 (11760151_x_at) / RFU OR4N2 (11742367_at) / Fold change /veh OR4N2 (11742367_at) / RFU PRRT2 (11749266_a_at) / Fold change /veh PRRT2 (11749266_a_at) / RFU SNX32 (11753110_a_at) / Fold change /veh SNX32 (11753110_a_at) / RFU CDHR5 (11726645_a_at) / Fold change /veh CDHR5 (11726645_a_at) / RFU RCAN1 (11760418_a_at) / Fold change /veh RCAN1 (11760418_a_at) / RFU FAM167A (11723789_a_at) / Fold change /veh FAM167A (11723789_a_at) / RFU FAM26E (11764081_at) / Fold change /veh FAM26E (11764081_at) / RFU ISYNA1 (11749810_s_at) / Fold change /veh ISYNA1 (11749810_s_at) / RFU ACY1 (11761880_at) / Fold change /veh ACY1 (11761880_at) / RFU 11764098_at / Fold change /veh 11764098_at / RFU SAMD14 (11745864_x_at) / Fold change /veh SAMD14 (11745864_x_at) / RFU NPB (11741838_a_at) / Fold change /veh NPB (11741838_a_at) / RFU TMPRSS6 (11731388_a_at) / Fold change /veh TMPRSS6 (11731388_a_at) / RFU KRTAP10-2 (11738614_at) / Fold change /veh KRTAP10-2 (11738614_at) / RFU ARHGAP8 /// PRR5-ARHGAP8 (11727945_x_at) / Fold change /veh ARHGAP8 /// PRR5-ARHGAP8 (11727945_x_at) / RFU KRTAP5-7 /// NADSYN1 (11734609_at) / Fold change /veh KRTAP5-7 /// NADSYN1 (11734609_at) / RFU RASL12 (11751679_a_at) / Fold change /veh RASL12 (11751679_a_at) / RFU CDKN2B (11736163_a_at) / Fold change /veh CDKN2B (11736163_a_at) / RFU PRF1 (11729649_at) / Fold change /veh PRF1 (11729649_at) / RFU, ZNF638 /// ZNF638-IT1 / Fold change vs veh, ZNF638 /// ZNF638-IT1 / RFU, PANK3 / Fold change vs veh, PANK3 / RFU, SH3YL1 / Fold change vs veh, SH3YL1 / RFU, ZEB2 / Fold change vs veh, ZEB2 / RFU, NRIP1 / Fold change vs veh, NRIP1 / RFU, PTTG1IP / Fold change vs veh, PTTG1IP / RFU, CAPN2 / Fold change vs veh, CAPN2 / RFU, MED14 / Fold change vs veh, MED14 / RFU, SNORA58 / Fold change vs veh, SNORA58 / RFU, C1orf63 / Fold change vs veh, C1orf63 / RFU, LRRFIP1 / Fold change vs veh, LRRFIP1 / RFU, NDUFAF7 / Fold change vs veh, NDUFAF7 / RFU, SLC12A2 / Fold change vs veh, SLC12A2 / RFU, IBTK / Fold change vs veh, IBTK / RFU, ESF1 / Fold change vs veh, ESF1 / Fold change vs veh, TMEM50B / RFU, TAOK1 / Fold change vs veh, TAOK1 / RFU, ACBD3 / Fold change vs veh, ACBD3 / RFU, TMA16 / Fold change vs veh, TMA16 / RFU, RWDD3 / Fold change vs veh, RWDD3 / RFU, BCAT1 / Fold change vs veh, BCAT1 / RFU, EDEM3 / Fold change vs veh, EDEM3 / RFU, TMEM33 / Fold change vs veh, TMEM33 / RFU, WDR75 / Fold change vs veh, WDR75 / RFU, AHCTF1 / Fold change vs veh, AHCTF1 / RFU, TFRC / Fold change vs veh, TFRC / RFU, ZDHHC17 / Fold change vs veh, ZDHHC17 / RFU, NOM1 / Fold change vs veh, NOM1 / RFU, ARL8B / Fold change vs veh, ARL8B / RFU, ZBTB11 / Fold change vs veh, ZBTB11 / RFU, TAMM41 / Fold change vs veh, TAMM41 / RFU, KIAA1704 /// LOC100996395 / Fold change vs veh, KIAA1704 /// LOC100996395 / RFU, ING1 / Fold change vs veh, ING1 / RFU, TRMT61B / Fold change vs veh, TRMT61B / RFU, FUBP3 / Fold change vs veh, FUBP3 / RFU, TP53 / Fold change vs veh, TP53 / RFU, TNKS2 / Fold change vs veh, TNKS2 / RFU, ZFP14 / Fold change vs veh, ZFP14 / RFU, ACTR2 / Fold change vs veh, ACTR2 / RFU, PPP3R1 / Fold change vs veh, PPP3R1 / RFU, PIK3R1 / Fold change vs veh, PIK3R1 / RFU, HNRNPA1 / Fold change vs veh, HNRNPA1 / RFU, RNF170 / Fold change vs veh, RNF170 / RFU, ZNF28 / Fold change vs veh, ZNF28 / RFU, RNGTT / Fold change vs veh, RNGTT / RFU, OGT / Fold change vs veh, OGT / RFU, BRD1 / Fold change vs veh, BRD1 / RFU, MARS / Fold change vs veh, MARS / RFU, ZNF655 / Fold change vs veh, ZNF655 / RFU, FAHD1 / Fold change vs veh, FAHD1 / RFU, BDP1 / Fold change vs veh, BDP1 / RFU, LRRCC1 / Fold change vs veh, LRRCC1 / RFU, ARID1A / Fold change vs veh, ARID1A / RFU, ZNF146 / Fold change vs veh, ZNF146 / RFU, ZNF330 / Fold change vs veh, ZNF330 / RFU, GPN3 / Fold change vs veh, GPN3 / RFU, C9orf123 / Fold change vs veh, C9orf123 / RFU, N4BP2L2 / Fold change vs veh, N4BP2L2 / RFU, ARFIP1 / Fold change vs veh, ARFIP1 / RFU, FAM179B / Fold change vs veh, FAM179B / RFU, BCL10 / Fold change vs veh, BCL10 / RFU, UHRF1BP1L / Fold change vs veh, UHRF1BP1L / RFU, BET1 / Fold change vs veh, BET1 / RFU, CNOT2 / Fold change vs veh, CNOT2 / RFU, ZNF268 / Fold change vs veh, ZNF268 / Fold change vs veh, ZNF507 / RFU, DGCR2 / Fold change vs veh, DGCR2 / RFU, WDSUB1 / Fold change vs veh, WDSUB1 / Fold change vs veh, HSP90B1 /// MIR3652 / RFU, ADSS / Fold change vs veh, ADSS / RFU, GK / Fold change vs veh, GK / RFU, ZNF148 / Fold change vs veh, ZNF148 / RFU, TAF9 / Fold change vs veh, TAF9 / RFU, SLC1A5 / Fold change vs veh, SLC1A5 / RFU, SLMO2 / Fold change vs veh, SLMO2 / RFU, ABCC4 / Fold change vs veh, ABCC4 / RFU, LOC101060439 /// RAP1B / Fold change vs veh, LOC101060439 /// RAP1B / RFU, RFX7 / Fold change vs veh, RFX7 / RFU, GTPBP10 / Fold change vs veh, GTPBP10 / RFU, CNEP1R1 / Fold change vs veh, CNEP1R1 / RFU, BIVM-ERCC5 /// ERCC5 / Fold change vs veh, BIVM-ERCC5 /// ERCC5 / RFU, ILF3 / Fold change vs veh, ILF3 / RFU 11762660_at / Fold change /veh 11762660_at / RFU VCAN (11757783_s_at) / Fold change /veh VCAN (11757783_s_at) / RFU DDX43 (11728927_at) / Fold change /veh DDX43 (11728927_at) / RFU KRT8 (11758188_x_at) / Fold change /veh KRT8 (11758188_x_at) / RFU NKD1 (11759106_at) / Fold change /veh NKD1 (11759106_at) / RFU SRD5A1 (11742802_a_at) / Fold change /veh SRD5A1 (11742802_a_at) / RFU TPSAB1 /// TPSB2 (11721975_s_at) / Fold change /veh TPSAB1 /// TPSB2 (11721975_s_at) / RFU GSTM3 (11746129_a_at) / Fold change /veh GSTM3 (11746129_a_at) / RFU IL23R (11737362_x_at) / Fold change /veh IL23R (11737362_x_at) / RFU TMEM51 (11727254_a_at) / Fold change /veh TMEM51 (11727254_a_at) / RFU PIWIL2 (11732686_x_at) / Fold change /veh PIWIL2 (11732686_x_at) / RFU ORM1 (11744905_x_at) / Fold change /veh ORM1 (11744905_x_at) / RFU CCDC152 (11743942_at) / Fold change /veh CCDC152 (11743942_at) / RFU ECM1 (11717891_a_at) / Fold change /veh ECM1 (11717891_a_at) / RFU IL23R (11748794_a_at) / Fold change /veh IL23R (11748794_a_at) / RFU TNFAIP8L3 (11732012_x_at) / Fold change /veh TNFAIP8L3 (11732012_x_at) / RFU MBOAT4 (11741988_at) / Fold change /veh MBOAT4 (11741988_at) / RFU 11764193_at / Fold change /veh 11764193_at / RFU TMEM53 (11763286_at) / Fold change /veh TMEM53 (11763286_at) / RFU MAGEB2 (11727129_at) / Fold change /veh MAGEB2 (11727129_at) / RFU TMEM200A (11744735_a_at) / Fold change /veh TMEM200A (11744735_a_at) / RFU CCDC152 (11751479_a_at) / Fold change /veh CCDC152 (11751479_a_at) / RFU FAM211A (11726209_a_at) / Fold change /veh FAM211A (11726209_a_at) / RFU RGS16 (11746705_a_at) / Fold change /veh RGS16 (11746705_a_at) / RFU VCAN (11755009_s_at) / Fold change /veh VCAN (11755009_s_at) / RFU RHOB (11743442_s_at) / Fold change /veh RHOB (11743442_s_at) / RFU RGS16 (11720943_a_at) / Fold change /veh RGS16 (11720943_a_at) / RFU RGS16 (11720944_at) / Fold change /veh RGS16 (11720944_at) / RFU, VPS4B / Fold change vs veh, VPS4B / RFU, CREB1 / Fold change vs veh, CREB1 / RFU, DNAJC13 / Fold change vs veh, DNAJC13 / RFU, GNAQ / Fold change vs veh, GNAQ / RFU, CDK5R1 / Fold change vs veh, CDK5R1 / RFU, ZRANB3 / Fold change vs veh, ZRANB3 / RFU, CUL4A / Fold change vs veh, CUL4A / RFU, CCNY / Fold change vs veh, CCNY / RFU, UFL1 / Fold change vs veh, UFL1 / RFU, COG3 / Fold change vs veh, COG3 / RFU, DIAPH2 / Fold change vs veh, DIAPH2 / RFU, SKA2 / Fold change vs veh, SKA2 / RFU, AFF3 / Fold change vs veh, AFF3 / RFU, LMF1 / Fold change vs veh, LMF1 / RFU, IPO11 / Fold change vs veh, IPO11 / RFU, DFFB / Fold change vs veh, DFFB / RFU, FOXP1 / Fold change vs veh, FOXP1 / RFU, CARD8 / Fold change vs veh, CARD8 / RFU, STRN3 / Fold change vs veh, STRN3 / RFU, ADK / Fold change vs veh, ADK / RFU, RASSF2 / Fold change vs veh, RASSF2 / RFU, WIPF1 / Fold change vs veh, WIPF1 / RFU, LARP1B / Fold change vs veh, LARP1B / RFU, RASA1 / Fold change vs veh, RASA1 / RFU, RB1 / Fold change vs veh, RB1 / RFU, PPFIA1 / Fold change vs veh, PPFIA1 / RFU, MAT2A / Fold change vs veh, MAT2A / RFU, CCT5 / Fold change vs veh, CCT5 / RFU, WDR92 / Fold change vs veh, WDR92 / RFU, CUX1 / Fold change vs veh, CUX1 / RFU, TTC7A / Fold change vs veh, TTC7A / RFU, TMEM135 / Fold change vs veh, TMEM135 / RFU, DEPTOR / Fold change vs veh, DEPTOR / RFU, CPM / Fold change vs veh, CPM / RFU, DNAJB6 / Fold change vs veh, DNAJB6 / RFU, CACNA2D3 / Fold change vs veh, CACNA2D3 / RFU, DTX4 / Fold change vs veh, DTX4 / RFU, TFCP2 / Fold change vs veh, TFCP2 / RFU, GMCL1 /// GMCL1P1 / Fold change vs veh, GMCL1 /// GMCL1P1 / RFU, AEBP2 / Fold change vs veh, AEBP2 / RFU, SNHG1 /// SNORD22 /// SNORD25 /// SNORD26 /// SNORD27 /// SNORD28 /// SNORD29 /// SNORD31 / Fold change vs veh, SNHG1 /// SNORD22 /// SNORD25 /// SNORD26 /// SNORD27 /// SNORD28 /// SNORD29 /// SNORD31 / Fold change (Aza/veh), C12orf56 (ProbeSet 11735607_a_at) / Fold change (ACY-1035/veh), C12orf56 (ProbeSet 11735607_a_at) / Fold change (Aza/veh), FGFR1OP (ProbeSet 11751329_s_at) / Fold change (ACY-1035/veh), FGFR1OP (ProbeSet 11751329_s_at) / Fold change (Aza/veh), VPS36 (ProbeSet 11739960_a_at) / Fold change (ACY-1035/veh), VPS36 (ProbeSet 11739960_a_at) / RFU SYPL1 (11715823_x_at) / Fold change /veh SYPL1 (11715823_x_at) / RFU IGFBP7 (11715501_s_at) / Fold change /veh IGFBP7 (11715501_s_at) / RFU REEP3 (11722064_at) / Fold change /veh REEP3 (11722064_at) / RFU IGLL1 (11728026_x_at) / Fold change /veh IGLL1 (11728026_x_at): dose or concentration left out as unconfirmed
Conditions: ProbeSet 11755159_a_at; LIST D

Question: For `Nc1ncn([C@@H]2O[C@H](CO)[C@@H](O)[C@H]2O)c(=O)n1` [azacitidine], which “RFU, COG3” value is on record?
Answer: 74.05 RFU

Source: PMC5218480 (PLoS ONE, 2017)
